Here are results for 22 compounds from ChEMBL document CHEMBL1128381, “Hypoxia-selective antitumor agents. 10. bis(nitroimidazoles) and related Bis(nitroheterocycles): development of derivatives with higher rates of metabolic activation under hypoxia and improved aqueous solubility” (J Med Chem, 1995).

Activity calls are given as the source filed them. The rule behind the calls is not given here.

Data set [1] has as its system UV4. Nature of the data set: Hypersensitivity (HF) factor in chinese hamster cell line UV4 [HF= ratio (IC50 in AA8 cells)/(IC50 in UV4 cells)]. The format is functional, Cricetulus griseus.
The test system of data set [2] is CHO-AA8. Put plainly: Aerobic growth inhibition in Chinese hamster cell line AA8. In kind it is functional, cell-based. As to conditions: Cricetulus griseus.
Data set [3] in a line: Ratio between aerobic CT10 and hypoxic CT10. In kind it is functional.
Data set [4] has as its system FME. Put plainly: Hypersensitivity (HF) factor in human melanoma FME cells [HF= ratio (IC50 in AA8 cells)/(IC50 in FME cells)]. The format is functional.
Data set [5] relates to CHO-AA8. Nature of the data set: Concentration x time (uM h) to reduce cell survival to 10% of control values under hypoxic conditions by clonogenic assay. In kind it is ADME, cell-based, Cricetulus griseus. As to conditions: chinese hamster.
The subject of data set [6] is EMT6. Put plainly: Hypersensitivity (HF) factor in murine mammary carcinoma EMT6 cells [HF= ratio (IC50 in AA8 cells)/(IC50 in EMT6)]. In kind it is functional, Mus musculus.
Data set [7] deals with UV4. Put plainly: Evaluated for hypersensitivity (HF) factor in chinese hamster cell line UV4; Evaluated as HF=IC50 for AA8/IC50 for the chinese hamster cell line UV4; f means inactive at solubility limit. The conditions noted are these: Cricetulus griseus. The format is functional, cell-based.
Data set [8] relates to CHO-AA8. Put plainly: Concentration x time (uM h) to reduce cell survival to 10% of control values under hypoxic conditions by clonogenic assay. Inactive at the solubility limit. The format is ADME, cell-based, Cricetulus griseus. As to conditions: chinese hamster.
Data set [9] concerns FME. Put plainly: Evaluated for hypersensitivity (HF) factor in human melanoma FME cells as HF=IC50 for AA8/IC50 for the human melanoma FME; f means inactive at the solubility limit. The format is functional, cell-based.
Data set [10] deals with EMT6. Nature of the data set: Evaluated for hypersensitivity (HF) factor in murine mammary carcinoma EMT6 cells as HF=IC50 for AA8/IC50 for the murine mammary carcinoma EMT6; f means inactive at the solubility limit. The format is functional, cell-based. As to conditions: Mus musculus.
Data set [11] is described as follows: Ratio between aerobic CT10 and hypoxic CT10; No aerobic cytotoxicity at the solubility limit.

On to `O=[N+]([O-])c1nccn1CCCNCCCn1ccnc1[N+](=O)[O-]`, for which the values for the HF in data set [1], in data set [4] and in data set [6] were 0.9, 2.58 and 5.37, respectively. In addition, the half-maximal inhibitory concentration (IC50) (commonly the concentration at which inhibition is half-maximal) in [2] was 1.18 mM. In addition, the selectivity ratio in data set [3] was determined as 40. Besides, the CT10 in [5] was 2300 µM·h.

Take `Cc1ncc([N+](=O)[O-])n1CCN(C)CCCCn1ccnc1[N+](=O)[O-]`: the HF in data set [1] is reported as 0.98; in data set [4], 1.54; in [6], 1.44. Moreover, it took 1 mM to reach half-maximal inhibition in data set [2] (IC50). Besides, in data set [3], the selectivity ratio came out at 8. In data set [5], this compound gave a CT10 of 2000 µM·h.

In the case of `O=C(NCCCn1ccnc1[N+](=O)[O-])C(=O)NCCCn1ccnc1[N+](=O)[O-]`, the HF result in data set [7], in [9] and in [10] was “Inactive at solubility limit” each time. Moreover, the CT10 in [8] was over 700 µM·h. The compound also gave an IC50 in data set [2] of over 0.08 mM.

For the compound `Cc1ncc([N+](=O)[O-])n1CCNCCCCn1ccnc1[N+](=O)[O-]`, the HF was determined as 1.07 in [1], 1.27 in [4] and 2.12 in data set [6]. In data set [2], this compound displayed a half-maximal inhibitory concentration (IC50) of 2 mM. Besides, the selectivity ratio in data set [3] is 12. The CT10 in data set [5] turned out to be 2400 µM·h.

For the compound `COCC(O)Cn1ccnc1[N+](=O)[O-]` (stereo not drawn) [MISONIDAZOLE], the HF is 1.37 in data set [1], 1.94 in [4] and 3.6 in data set [6]. For the same compound, the selectivity ratio in [3] stood at 18. The CT10 in [5] stood at 16000 µM·h.

As to `Cc1ncc([N+](=O)[O-])n1CCNS(=O)(=O)CCCn1ccnc1[N+](=O)[O-]`, the HF result in data set [7] was “Inactive at solubility limit”; in data set [4], over 0.91; in data set [6], over 0.84. For the same compound, the IC50 in data set [2] is over 40.3 mM.

Regarding `Cc1ncc([N+](=O)[O-])n1CCNC(=O)CCC(=O)NCCn1ccnc1[N+](=O)[O-]`, the HF in [1] turned out to be 1; in [4], 3.49; in [6], 7.09. In addition, the IC50 in data set [2] is 6.6 mM. Besides, in data set [11], the selectivity ratio is over 6. In data set [5], this compound came in with a CT10 of 47000 µM·h.

Regarding `O=C(CCCn1cnc([N+](=O)[O-])n1)NCCn1ccnc1[N+](=O)[O-]`, the HF in data set [1] is given as 1.17; in [4], over 1.9; in [6] it was 1.76. Also, in [2], the IC50 stood at 1.71 mM. Moreover, in data set [11], the selectivity ratio is over 1. Further, the CT10 in data set [5] turned out to be 15000 µM·h.

For the compound `O=[N+]([O-])c1nccn1CC(O)CNCCBr` (stereo not drawn), the results for the HF in data set [1], in data set [4] and in [6] were 5.85, 1 and 1.55, respectively. Besides, the selectivity ratio in data set [3] stood at 20. The CT10 in data set [5] was 400 µM·h.

In the case of `Cc1ncc([N+](=O)[O-])n1CCNC(=O)CCCn1ccnc1[N+](=O)[O-]`, the HF is 1.38 in data set [1], 3.51 in data set [4] and 4.64 in data set [6]. The selectivity ratio in data set [3] was 8. In data set [5], the CT10 was determined as 12000 µM·h.

As to `Cc1ncc([N+](=O)[O-])n1CCNC(=O)CCCn1cnc([N+](=O)[O-])n1`, the HF was found to be 1.2 in [1], 4.51 in data set [4] and 4.94 in [6]. The compound also had a half-maximal inhibitory concentration (IC50) in data set [2] of 6.42 mM. Besides, the selectivity ratio in data set [3] is over 1.3. Further, the CT10 in [5] stood at 100000 µM·h.

With `Cc1ncc([N+](=O)[O-])n1CCN(C)C(=O)CCCn1ccnc1[N+](=O)[O-]`, the HF in data set [1] turned out to be 1.05; in data set [4] it was 2.83; in [6], 2.09. Moreover, the concentration for half-maximal inhibition (IC50) in data set [2] worked out at 4.8 mM. Moreover, the selectivity ratio in [3] is over 18. This compound also displayed a CT10 in data set [5] of 7200 µM·h.

Regarding `O=[N+]([O-])c1nccn1CC1OC(n2ccnc2[N+](=O)[O-])C(O)C(O)C1O` (stereo not drawn), the results for the HF in data set [1], in data set [4] and in [6] were 0.89, 2.44 and under 0.8, respectively. Moreover, the IC50 in data set [2] amounted to 7.4 mM. The selectivity ratio in data set [11] is over 1.5. Besides, the CT10 in [5] was 57000 µM·h.

In the case of `Cc1ncc([N+](=O)[O-])n1CC(O)Cn1ccnc1[N+](=O)[O-]` (stereo not drawn), the values for the HF in data set [1], in data set [4] and in data set [10] were over 0.85, over 1.11 and “Inactive at solubility limit”, respectively. The IC50 in data set [2] was over 0.8 mM. For the same compound, in [11], the selectivity ratio was over 3. The CT10 in data set [5] worked out at 2400 µM·h.

As for `Cc1ncc([N+](=O)[O-])n1CCNS(=O)(=O)CCCn1cnc([N+](=O)[O-])n1`, the HF was under 1.35 in data set [1], 1.19 in data set [4] and under 1.35 in data set [6]. The compound also had a concentration for half-maximal inhibition (IC50) in [2] of 1.14 mM.

In the case of `C[N+](C)(CCCn1ccnc1[N+](=O)[O-])CCCn1ccnc1[N+](=O)[O-].[I-]`, the HF is given as 0.89 in data set [1], 4.85 in [4] and 24.2 in data set [6]. In addition, the concentration for half-maximal inhibition (IC50) in data set [2] was determined as 3.65 mM. Also, the selectivity ratio in data set [3] was determined as 10. The CT10 in data set [5] is 23000 µM·h.

Consider `O=[N+]([O-])c1nccn1CC(O)CN1CCCCC1` (stereo not drawn) [PIMONIDAZOLE], for which the HF in data set [1] worked out at 1.37; in [4] it was 4.07; in [6], 6.3. Also, in [2], half-maximal inhibition (IC50) required 3.03 mM. In addition, in data set [3], the selectivity ratio stood at 40. The compound also had a CT10 in data set [5] of 3500 µM·h.

With `Cc1ncc([N+](=O)[O-])n1CC(O)Cn1cnc([N+](=O)[O-])n1` (stereo not drawn), the values for the HF in data set [1], in data set [4] and in data set [6] were 1.16, 3.63 and 4.85, respectively. Moreover, it took 2.3 mM to reach half-maximal inhibition in [2] (IC50). In [5], this compound displayed a CT10 of over 47000 µM·h.

`O=C(CCCn1ccnc1[N+](=O)[O-])NCCn1cnc([N+](=O)[O-])n1`: the HF in [1] turned out to be 1.19; in data set [4], 6.9; in data set [6], 10.7. For the same compound, in [2], the half-maximal inhibitory concentration (IC50) turned out to be 6.92 mM. In addition, in [11], the selectivity ratio was over 6. This compound displayed a CT10 in data set [5] of 17000 µM·h.

Consider `Cc1ncc([N+](=O)[O-])n1CCNCCCn1ccnc1[N+](=O)[O-]`, for which the HF in data set [1] worked out at 1.42; in [4], 3.61; in data set [6], 4.73. The 50% inhibitory concentration (IC50) in data set [2] is 4.74 mM. For the same compound, in data set [3], the selectivity ratio came to 14. The CT10 in [5] is 2400 µM·h.

On to `CN(CCCn1ccnc1[N+](=O)[O-])CCCn1ccnc1[N+](=O)[O-]`, for which the HF was 0.97 in data set [1], 2.55 in [4] and 2.6 in data set [6]. Moreover, in data set [2], half-maximal inhibition (IC50) required 0.81 mM. Further, the selectivity ratio in data set [3] was 40. In [5], this compound returned a CT10 of 700 µM·h.

Turning to `O=C(CCCn1cnc([N+](=O)[O-])n1)NCCCn1ccnc1[N+](=O)[O-]`, the HF in data set [1] was determined as 1.25; in [4], 5.94; in [6], 8.38. The same compound yielded an IC50 in [2] of 5.28 mM. In addition, the selectivity ratio in data set [3] was determined as 3.5. Further, the CT10 in data set [5] was 17000 µM·h.
